Drawing on ChEMBL document CHEMBL3414535, “Identification and optimization of Escherichia coli GlmU inhibitors: an in silico approach with validation thereof” (Eur J Med Chem, 2015), this text covers IC50 and inhibition for 89 molecules.

SMILES strings stand for the structures.

Sequence of Bifunctional protein GlmU (Escherichia coli (strain K12)) (P0ACC7 whole entry, looked up): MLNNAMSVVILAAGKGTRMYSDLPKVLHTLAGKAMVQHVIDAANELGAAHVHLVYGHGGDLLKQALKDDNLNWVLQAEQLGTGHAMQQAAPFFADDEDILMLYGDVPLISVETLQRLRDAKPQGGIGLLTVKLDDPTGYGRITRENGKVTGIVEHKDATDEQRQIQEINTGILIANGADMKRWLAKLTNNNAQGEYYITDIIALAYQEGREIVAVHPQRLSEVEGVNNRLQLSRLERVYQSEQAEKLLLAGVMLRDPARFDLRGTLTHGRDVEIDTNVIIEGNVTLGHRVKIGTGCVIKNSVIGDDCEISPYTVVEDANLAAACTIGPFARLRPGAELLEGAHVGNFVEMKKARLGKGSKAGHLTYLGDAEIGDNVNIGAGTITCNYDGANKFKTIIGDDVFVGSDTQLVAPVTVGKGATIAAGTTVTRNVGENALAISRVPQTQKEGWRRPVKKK

The target of the first experiment is Bifunctional protein GlmU (Escherichia coli (strain K12), UniProt P0ACC7). The experiment in a line: Inhibition of Escherichia coli GlmU acetyltransferase activity assessed as coenzyme A production using acetyl CoA substrate.
Sequence of Bifunctional protein GlmU (P0ACC7 whole entry): as the sequence (P0ACC7 whole entry, looked up) above
For `COc1cc(OC)c(S(=O)(=O)N(c2ccc(C)cc2)c2ccc(C)cc2)cc1NC(=O)CCC(=O)O`, the IC50 (as a rule, the concentration that gives 50% inhibition) is 0.04 µM.

`COc1cc(OC)c(S(=O)(=O)N2c3ccccc3CC[C@@H]2C)cc1NC(=O)CCc1nn[nH]n1`: the IC50 amounted to 0.43 µM.

Take `COc1cc(OC)c(S(=O)(=O)N2c3ccccc3CC[C@H]2C)cc1NC(=O)COC(C)=O`: the IC50 came to 2 µM.

For `COc1cc(OC)c(S(=O)(=O)N2c3ccccc3CC[C@@H]2C)cc1NC(=O)CCC(=O)O`, the IC50 amounted to 0.09 µM.

On to `COc1cc(O)c(S(=O)(=O)N2c3ccccc3Oc3ccccc32)cc1NC(=O)[C@H]1[C@H](C)[C@@H]1C(=O)O`, for which the IC50 is 0.06 µM.

Consider `COc1cc(OC)c(S(=O)(=O)N2c3ccccc3Oc3ccccc32)cc1NC(=O)Cc1ccncc1`, for which the IC50 stood at 0.06 µM.

With `COc1cc(OC)c(S(=O)(=O)N2c3ccccc3CC[C@H]2C)cc1NC(=O)CSCC(=O)O`, the IC50 came out at 0.1 µM.

For the molecule `COc1cc(OC)c(S(=O)(=O)Nc2ccc(F)cc2)cc1NC(C)=O`, the IC50 came to 25 µM.

For `COc1cc(O)c(S(=O)(=O)N2c3ccccc3CC[C@H]2C)cc1NC(=O)[C@H]1[C@H](C)[C@H]1C(=O)O`, the IC50 turned out to be 0.48 µM.

With `COc1cc(OC)c(S(=O)(=O)NCc2ccccc2N2CCC(C(=O)O)CC2)cc1NC(=O)CCC(=O)O`, the IC50 is 0.5 µM.

As for `COc1cc(OC)c(S(=O)(=O)Nc2cccc(F)c2)cc1NC(C)=O`, the IC50 stood at 15 µM.

As to `COc1cc(OC)c(S(=O)(=O)N2c3ccccc3CC[C@@H]2C)cc1NC(=O)Cc1ccnc(C#N)c1`, the IC50 amounted to 0.68 µM.

In the case of `COc1cc(OC)c(S(=O)(=O)Nc2ccccc2)cc1NC(C)=O`, the IC50 was determined as 20 µM.

For `CCN(c1ccccc1C)S(=O)(=O)c1cc(NC(C)=O)c(OC)cc1OC`, the IC50 was found to be 15 µM.

Take `COc1cc(OC)c(S(=O)(=O)NCc2ccccc2N2CCC(CC(=O)O)CC2)cc1NC(=O)CCC(=O)O`: the concentration for half-maximal inhibition (IC50) was found to be 0.4 µM.

With `COc1cc(OC)c(S(=O)(=O)N2c3ccccc3Oc3ccccc32)cc1NC(=O)/C=C/C(=O)O`, the IC50 was determined as 0.01 µM.

As for `COc1cc(OC)c(S(=O)(=O)N2c3ccccc3CC[C@H]2C)cc1NC(=O)NCC(=O)O`, the half-maximal inhibitory concentration (IC50) is 0.5 µM.

On to `COc1cc(OC)c(S(=O)(=O)NCc2ccccc2N2CCCCC2)cc1NC(C)=O`, for which the concentration for half-maximal inhibition (IC50) is 200 µM.

In the case of `COc1cc(OC)c(S(=O)(=O)N2Cc3ccccc3Oc3ccccc32)cc1NC(=O)CCC(=O)O`, the IC50 worked out at 0.03 µM.

Regarding `COc1cc(OC)c(S(=O)(=O)NCc2ccccc2N2CCCCC2)cc1NC(=O)CCC(=O)O`, the IC50 stood at 3 µM.

Regarding `COc1cc(OC)c(S(=O)(=O)NCc2ccccc2CC(=O)O)cc1NC(C)=O`, the half-inhibitory concentration (IC50) was 15 µM.

For `COc1cc(OC)c(S(=O)(=O)NCc2ccccc2N2CCC(CO)CC2)cc1NC(=O)CCC(=O)O`, the 50% inhibitory concentration (IC50) worked out at 3 µM.

Consider `COc1cc(OC)c(S(=O)(=O)N2c3ccccc3Sc3ccccc32)cc1NC(=O)CCC(=O)O`, for which the IC50 was 0.09 µM.

As to `COc1cc(OC)c(S(=O)(=O)N2c3ccccc3CC[C@@H]2C)cc1NC(=O)[C@@H]1[C@@H](C)[C@H]1C(=O)O`, the IC50 was 0.4 µM.

As to `COc1cc(OC)c(S(=O)(=O)N2c3ccccc3CC[C@@H]2C)cc1NC(=O)Cc1ccnc(F)c1`, the IC50 was found to be 0.8 µM.

In the case of `COc1cc(OC)c(S(=O)(=O)N2c3ccccc3CC[C@H]2C)cc1NC(=S)NCC(=O)O`, the IC50 was 0.5 µM.

For the molecule `COc1cc(OC)c(S(=O)(=O)N(c2ccccc2)c2ccccc2)cc1NC(=O)CCC(=O)O`, the IC50 was found to be 0.04 µM.

Consider `COc1cc(OC)c(S(=O)(=O)Nc2ccccc2F)cc1NC(C)=O`, for which the IC50 was found to be 5 µM.

As to `COc1cc(OC)c(S(=O)(=O)NCc2ccc3c(c2)OCO3)cc1NC(C)=O`, the concentration for half-maximal inhibition (IC50) stood at 200 µM.

As for `COc1cc(OC)c(S(=O)(=O)NCc2ccccc2N2CCC(COC(=O)CCC(=O)O)CC2)cc1NC(=O)CCC(=O)O`, the IC50 came to 0.25 µM.

`COc1cc(OC)c(S(=O)(=O)N2c3ccccc3CC[C@@H]2C)cc1NC(=O)c1ccccc1`: the half-inhibitory concentration (IC50) is 200 µM.

On to `COc1cc(OC)c(S(=O)(=O)N2c3ccccc3CC[C@@H]2C)cc1NC(=O)COc1ccc(C(C)=O)cc1`, for which the concentration for half-maximal inhibition (IC50) came to 200 µM.

`COc1cc(OC)c(S(=O)(=O)N(c2ccccc2)c2ccc(N)cc2)cc1NC(=O)CCC(=O)O`: the IC50 came to 0.02 µM.

The next experiment concerns the target Bifunctional protein GlmU (Escherichia coli (strain K12)) (UniProt P0ACC7). The experiment in a line: Inhibition of Escherichia coli GlmU acetyltransferase activity assessed as coenzyme A production using acetyl CoA substrate at 100 uM.
Consider `O=C(CSC1=NS(=O)(=O)c2ccccc2N1)OCc1ccccc1`, for which the inhibition (usually the change of the read-out against control, counted positive when it falls) came to 18.4%.

For the molecule `CCOC(=O)c1cc(S(=O)(=O)N2CCCC2C(=O)NC(C)(C)CC)cn1C` (centres undefined), the inhibition was 30.8%.

On to `O=C(Nc1nc(S(=O)(=O)Cc2ccccc2)ns1)c1ccccc1`, for which the inhibition was 15.8%.

For the molecule `CCOc1ccc(OCC)c(NS(=O)(=O)c2ccc3c(c2)N(C)CCO3)c1`, the inhibition was 29.2%.

`COc1ccc(Cl)cc1N(CC(=O)O)S(=O)(=O)c1ccccc1`: the inhibition was found to be 45.1%.

`CCOc1ccc(OCC)c(Nc2c(-c3ccccc3)c(=O)c2=O)c1`: the inhibition came out at 16.8%.

Consider `O=S(=O)(Nc1cc(F)cc(F)c1)c1c[nH]c2ncccc12`, for which the inhibition was found to be 14.8%.

For `COc1ccc(OC)c(N(CC(=O)O)S(=O)(=O)c2ccccc2)c1`, the inhibition was determined as 42%.

On to `CCOC(=O)c1c(S(=O)(=O)NCC(=O)Nc2cccnc2)c(C)n(C)c1C`, for which the inhibition was determined as 16.2%.

Consider `CCOC(=O)COc1ccccc1/C=C1\N=C(SCC)SC1=O`, for which the inhibition was 45.3%.

`O=S(=O)(c1ccccc1)c1nc(-c2ccsc2)oc1NCC1CCCO1` (centres undefined): the inhibition came out at 13.3%.

`COc1ccc(S(=O)(=O)C(CNC(=O)c2ccccc2)c2ccco2)cc1` (centres undefined): the inhibition worked out at 17.1%.

For `CC(Sc1nnc(O)nc1O)C(=O)OCc1ccccc1` (centres undefined), the inhibition was 28.6%.

Take `CCOC(=O)c1c(S(=O)(=O)NCC(=O)Nc2ccccc2)c(C)n(C)c1C`: the inhibition was determined as 15.2%.

As to `CC(C)C(=O)N1CCCc2cc(NS(=O)(=O)c3cccc(F)c3)ccc21`, the inhibition is 82.9%.

For the molecule `O=S(=O)(NCc1ccccn1)c1ccc(-c2ccno2)o1`, the inhibition worked out at 30.6%.

Regarding `CCOC(=O)c1cc(S(=O)(=O)N(C)CC(=O)Nc2ccc(F)cc2)cn1C`, the inhibition amounted to 11.9%.

For `COC(=O)c1cc(S(=O)(=O)Nc2cccc(Cl)c2C)c[nH]1`, the inhibition stood at 3.74%.

As to `Cc1ccc(C)c(NS(=O)(=O)c2ccc(-c3nnc(C(C)C)o3)o2)c1`, the inhibition was 34.4%.

For the molecule `CCOC(=O)CC1(c2ccccc2)SC(NC(C)=O)=NN1C(C)=O` (centres undefined), the inhibition is 9.41%.

In the case of `COC(=O)C1CN(C(=O)C(C)Oc2ccccc2F)c2ccccc2O1` (centres undefined), the inhibition stood at 25.5%.

As for `Cc1cc(S(=O)(=O)C(CNC(=O)c2ccco2)c2ccco2)ccc1F` (centres undefined), the inhibition was found to be 12.6%.

`CCn1c(C)c(-c2nc(C3CC3)no2)c(S(=O)(=O)NCC2CCCO2)c1C` (centres undefined): the inhibition was determined as 21.1%.

Take `O=S(=O)(c1ccccc1)c1nc(-c2ccco2)oc1NCCCn1ccnc1`: the inhibition was 20.7%.

On to `COc1ccccc1NS(=O)(=O)c1cc(-c2cnc(C3CC3)o2)ccc1C`, for which the inhibition came to 21.1%.

Regarding `O=C(CN1c2cccc3cccc(c23)S1(=O)=O)Nc1ccc(F)c(F)c1`, the inhibition worked out at 28.4%.

Consider `Cc1ccc(S(=O)(=O)n2ccn(C(=O)C(C)Oc3ccccc3)c2=O)cc1` (centres undefined), for which the inhibition was 11.1%.

As to `O=C(CN1c2ccc(F)cc2-c2ccccc2S1(=O)=O)Nc1cccnc1`, the inhibition was determined as 19.8%.

For `c1cncc(CNc2nnc(-c3nc(C4CC4)no3)c3ccccc23)c1`, the inhibition was determined as 18.5%.

In the case of `COCCNC(=O)c1ccccc1NS(=O)(=O)c1ccc2c(c1)OCCO2`, the inhibition stood at 12%.

As to `COc1ccc(-c2cnc(C)o2)cc1S(=O)(=O)Nc1cccc(F)c1`, the inhibition amounted to 36%.

As for `CCCN1C=NS(=O)(=O)c2cc(C(=O)Nc3ccccc3F)ccc21`, the inhibition turned out to be 20.1%.

Consider `Cc1cc(SCC(=O)c2ccc(O)cc2O)ncn1`, for which the inhibition was 20.9%.

For `COc1ccc(C2SCC(=O)Nc3[nH]nc(C)c32)c(OC)c1OC` (centres undefined), the inhibition was 20.5%.

Turning to `O=S(=O)(c1cc(-c2nnc(C3CCCC3)o2)co1)N1CCc2ccccc2C1`, the inhibition was 32.3%.

As to `O=S(=O)(Nc1cc(F)ccc1F)c1c[nH]c2ncccc12`, the inhibition was found to be 16.8%.

As to `COc1ccc(-c2cnc(C)o2)cc1S(=O)(=O)Nc1cccc(Cl)c1`, the inhibition came out at 40.6%.

On to `CCc1ccccc1NS(=O)(=O)c1ccc(-c2ccc(=O)[nH]n2)o1`, for which the inhibition was 9.82%.

With `CCOC(=O)c1cc(S(=O)(=O)N2CCCC2C(=O)N2CCCC2)cn1C` (centres undefined), the inhibition was determined as 7.99%.

On to `Cc1nc2c(c(SCC(=O)c3ccc(O)cc3O)n1)CCC2`, for which the inhibition is 25.9%.

Take `CCn1cc(C(=O)NCc2ccco2)c(S(=O)(=O)N2CCSCC2)n1`: the inhibition was found to be 22.1%.

On to `CCOC(=O)c1c(C)[nH]c(C)c1S(=O)(=O)NCC(=O)Nc1cccnc1`, for which the inhibition amounted to 16.5%.

For the molecule `CCOC(=O)c1cc(S(=O)(=O)N(C)CC(=O)Nc2ccc(C)cn2)cn1C`, the inhibition stood at 14.3%.

As for `CC(=O)Cc1nsc(NC(=O)C2(C)Cc3ccccc3C(=O)O2)n1` (centres undefined), the inhibition amounted to 24.6%.

Consider `COc1cc(Nc2c(-c3ccccc3)c(=O)c2=O)cc(OC)c1`, for which the inhibition amounted to 40%.

As to `COc1cc(NS(=O)(=O)c2c[nH]c3ncccc23)cc(OC)c1`, the inhibition was 19.3%.

For `O=C(Nc1nonc1-c1ccccc1)C1COc2ccccc2O1` (centres undefined), the inhibition came to 17.5%.

In the case of `O=S(=O)(Nc1ccc(F)c(F)c1)c1c[nH]c2ncccc12`, the inhibition was 25.9%.

With `COC(=O)c1cc(S(=O)(=O)Nc2ccc(C)cc2Cl)c[nH]1`, the inhibition came out at 5.22%.

For the molecule `COC(=O)c1cc(S(=O)(=O)Nc2cccc(SC)c2)c[nH]1`, the inhibition came out at 5.65%.

Consider `CN1C(C(=O)NCC2CCCO2)=CC(c2ccco2)=NS1(=O)=O` (centres undefined), for which the inhibition was 28.6%.

As to `O=C(NCCN1CCCC1)C1=C2CCCN2c2ccc(F)cc2S1(=O)=O`, the inhibition is 25.1%.

Consider `O=S(=O)(NCc1cccnc1)c1ccc(-c2ccno2)o1`, for which the inhibition came to 44.7%.

With `CCOC(=O)c1cc(S(=O)(=O)N2CCCC2C(=O)NC(C)C)cn1C` (centres undefined), the inhibition was 10.3%.

With `Cc1nn(-c2ccccc2)c(O)c1/C=N/NC(=O)C(O)c1ccccc1` (centres undefined), the inhibition turned out to be 28.1%.

As to `CSc1cccc(NS(=O)(=O)c2cc3c(cc2Cl)NC(=O)CO3)c1`, the inhibition amounted to 68.7%.
